Calls of active or inactive are those of the source.
Assays:
[1] = Shn3 3'UTR reporter inhibitors, dose response, cell-based, Clone20 osteoblasts, firefly luciferase, cherry-picked (AID 624132); assay type: functional;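 also: firefly luciferase luminescence from reporter carrying the Shn3 3'UTR in osteoblasts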
Vero [2] = experiment: cells; assay type: functional; conditions: Chlorocebus sabaeus
Vero [3] = experiment: cells; assay type: functional, cell-based; conditions: Chlorocebus sabaeus
Streptococcus = experiment: Group A Streptococcus viability loss, dose response, counter-screen for streptokinase expression inhibitor project, luminescence, BacTiterGlo (AID 1915); assay type: functional, organism-based;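 also: potency for reduction of bacterial viability or growth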
[4] = control 3'UTR Renilla luciferase suppression, dose response, counter-screen for Shn3 inhibitor project, cell-based, Clone20-Shn3RL, cherry-picked (AID 624133); assay type: functional
[5] = microbe, parasite or virus in culture; assay type: functional; conditions: Mycobacterium tuberculosis
[6] = system: Streptococcus sp. 'group A'; experiment: growth inhibition of control SK(-) GAS strain, dose response, counter-screen for streptokinase expression inhibitor project, luminescence, kanamycin, BacTiterGlo, confirmation (AID 1900); assay type: functional, organism-based
Streptokinase A = biological target: T1, Streptokinase A (Streptococcus pyogenes serotype M1, UniProt P10520); experiment: S. pyogenes streptokinase expression inhibitors, potency, dose response, plasminogen activation absorbance, OD405 (AID 1914); assay type: functional, Streptococcus pyogenes M1 GAS;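 also: secreted streptokinase activity via plasminogen activation per viability signal from cell pellet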
T1 sequence (P10520 whole entry): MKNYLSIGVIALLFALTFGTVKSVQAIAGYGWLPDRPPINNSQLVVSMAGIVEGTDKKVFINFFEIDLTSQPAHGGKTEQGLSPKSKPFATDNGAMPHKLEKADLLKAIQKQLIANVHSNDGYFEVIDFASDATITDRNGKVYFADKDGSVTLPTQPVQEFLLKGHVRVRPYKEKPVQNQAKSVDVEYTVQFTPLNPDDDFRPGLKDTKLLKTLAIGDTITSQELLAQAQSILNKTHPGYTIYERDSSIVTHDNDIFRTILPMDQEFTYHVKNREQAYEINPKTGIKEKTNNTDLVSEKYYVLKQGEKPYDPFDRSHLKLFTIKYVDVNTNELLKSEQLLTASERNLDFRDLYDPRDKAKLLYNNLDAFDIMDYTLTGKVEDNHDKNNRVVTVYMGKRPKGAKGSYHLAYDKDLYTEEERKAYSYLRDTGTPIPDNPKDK

[7] = biological target: 5-hydroxytryptamine receptor 5A (Homo sapiens, UniProt P47898); experiment: Counterscreen for agonists of OPRM1-OPRD1 heterodimerization: luminescence-based cell-based high throughput dose response assay to identify agonists of 5-hydroxytryptamine (serotonin) 5A receptor (HTR5A). [Related pubchem assays (depositor defined):AID504326, AID504355, AID504692, AID504904, AID504905]; assay type: functional
Chain of 5-hydroxytryptamine receptor 5A (P47898 whole entry): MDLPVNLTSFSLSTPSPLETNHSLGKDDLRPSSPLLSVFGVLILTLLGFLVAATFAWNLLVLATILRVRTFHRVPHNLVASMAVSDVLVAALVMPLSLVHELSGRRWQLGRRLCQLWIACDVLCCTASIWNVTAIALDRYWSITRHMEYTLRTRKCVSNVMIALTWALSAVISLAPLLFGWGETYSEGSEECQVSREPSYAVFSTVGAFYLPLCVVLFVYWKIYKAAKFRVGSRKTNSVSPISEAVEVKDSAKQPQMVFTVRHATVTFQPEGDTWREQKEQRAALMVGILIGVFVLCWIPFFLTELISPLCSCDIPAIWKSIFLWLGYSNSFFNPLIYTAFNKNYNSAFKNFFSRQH

Mu-type opioid receptor = Mu-type opioid receptor (Homo sapiens, UniProt P35372); experiment: Counterscreen for agonists of heterodimerization of the mu 1 (OPRM1) and delta 1 (OPRD1) opioid receptors: Luminescence-based cell-based high throughput dose response assay to identify agonists of OPRM1 homodimerization.; assay type: functional;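 also: U2OS cells expressing OPRM1 and beta-arrestin as split beta-galactosidase partners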
Chain of Mu-type opioid receptor (P35372 whole entry): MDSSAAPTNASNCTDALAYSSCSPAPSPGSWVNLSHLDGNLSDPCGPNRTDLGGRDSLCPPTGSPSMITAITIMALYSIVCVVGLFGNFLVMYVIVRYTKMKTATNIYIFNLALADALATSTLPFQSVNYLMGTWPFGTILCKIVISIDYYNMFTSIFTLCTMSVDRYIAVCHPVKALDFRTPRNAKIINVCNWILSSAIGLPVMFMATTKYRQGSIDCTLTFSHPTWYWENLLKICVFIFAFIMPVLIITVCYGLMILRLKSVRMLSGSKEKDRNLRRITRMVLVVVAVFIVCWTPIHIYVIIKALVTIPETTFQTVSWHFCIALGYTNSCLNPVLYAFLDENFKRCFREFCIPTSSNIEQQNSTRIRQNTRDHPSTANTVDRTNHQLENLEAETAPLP

Cytochrome P450 3A4 = Cytochrome P450 3A4 (Homo sapiens, UniProt P08684);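 also: CYP3A4 tested as one member of a cytochrome P450 panel screen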
Chain of Cytochrome P450 3A4 (P08684 whole entry): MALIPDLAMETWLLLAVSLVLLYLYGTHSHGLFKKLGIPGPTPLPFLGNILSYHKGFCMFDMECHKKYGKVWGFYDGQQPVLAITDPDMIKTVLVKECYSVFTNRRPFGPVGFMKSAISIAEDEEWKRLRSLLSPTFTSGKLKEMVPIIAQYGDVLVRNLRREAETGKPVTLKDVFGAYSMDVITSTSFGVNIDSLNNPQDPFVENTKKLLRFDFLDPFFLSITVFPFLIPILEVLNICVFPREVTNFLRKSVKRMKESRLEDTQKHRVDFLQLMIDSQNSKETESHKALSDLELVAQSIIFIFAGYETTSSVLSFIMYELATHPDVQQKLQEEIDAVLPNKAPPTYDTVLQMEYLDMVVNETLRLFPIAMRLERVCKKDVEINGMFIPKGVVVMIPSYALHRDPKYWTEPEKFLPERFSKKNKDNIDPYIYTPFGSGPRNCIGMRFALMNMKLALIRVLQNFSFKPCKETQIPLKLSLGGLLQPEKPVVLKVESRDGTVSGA

[8] = biological target: T2, Short transient receptor potential channel 4 (Mus musculus, UniProt Q9QUQ5); experiment: mouse TRPC4 channel activators, dose response, cell-based, HEK293 TRPC4/mu-opioid, Fluo-4 calcium (AID 434937); assay type: functional
T2 sequence (Q9QUQ5 whole entry): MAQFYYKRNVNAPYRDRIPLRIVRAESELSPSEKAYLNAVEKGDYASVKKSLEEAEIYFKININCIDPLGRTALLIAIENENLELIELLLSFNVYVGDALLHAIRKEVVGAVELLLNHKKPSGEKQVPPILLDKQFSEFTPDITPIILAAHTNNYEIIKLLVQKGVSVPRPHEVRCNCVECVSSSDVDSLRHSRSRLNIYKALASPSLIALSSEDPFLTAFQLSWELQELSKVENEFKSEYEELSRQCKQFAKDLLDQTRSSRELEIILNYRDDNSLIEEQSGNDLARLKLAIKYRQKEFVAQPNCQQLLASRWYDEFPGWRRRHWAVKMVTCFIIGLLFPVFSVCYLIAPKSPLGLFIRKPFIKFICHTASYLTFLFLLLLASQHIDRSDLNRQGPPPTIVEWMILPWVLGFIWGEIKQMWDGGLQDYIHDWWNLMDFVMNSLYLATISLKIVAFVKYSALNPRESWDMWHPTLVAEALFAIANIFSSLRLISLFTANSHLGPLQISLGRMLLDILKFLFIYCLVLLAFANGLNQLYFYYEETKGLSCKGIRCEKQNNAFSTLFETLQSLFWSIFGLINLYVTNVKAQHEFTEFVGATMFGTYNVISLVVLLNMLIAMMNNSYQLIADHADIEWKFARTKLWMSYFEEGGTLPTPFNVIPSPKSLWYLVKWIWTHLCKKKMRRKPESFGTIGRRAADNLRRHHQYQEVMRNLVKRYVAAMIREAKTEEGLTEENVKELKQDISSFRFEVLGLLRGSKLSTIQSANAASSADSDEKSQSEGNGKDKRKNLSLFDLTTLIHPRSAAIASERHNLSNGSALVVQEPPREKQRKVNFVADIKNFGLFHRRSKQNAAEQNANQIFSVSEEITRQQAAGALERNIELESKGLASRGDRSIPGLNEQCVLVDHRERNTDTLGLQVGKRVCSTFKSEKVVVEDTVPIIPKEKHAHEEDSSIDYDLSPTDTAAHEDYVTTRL

Cytochrome P450 2C19 = Cytochrome P450 2C19 (Homo sapiens, UniProt P33261); experiment: Cytochrome panel assay with activity outcomes. Panel member name: p450-cyp2c19 Compounds with AC50 equal or less than 10 uM are considered active; assay type: functional; conditions: read-out: AC50
Chain of Cytochrome P450 2C19 (P33261 whole entry): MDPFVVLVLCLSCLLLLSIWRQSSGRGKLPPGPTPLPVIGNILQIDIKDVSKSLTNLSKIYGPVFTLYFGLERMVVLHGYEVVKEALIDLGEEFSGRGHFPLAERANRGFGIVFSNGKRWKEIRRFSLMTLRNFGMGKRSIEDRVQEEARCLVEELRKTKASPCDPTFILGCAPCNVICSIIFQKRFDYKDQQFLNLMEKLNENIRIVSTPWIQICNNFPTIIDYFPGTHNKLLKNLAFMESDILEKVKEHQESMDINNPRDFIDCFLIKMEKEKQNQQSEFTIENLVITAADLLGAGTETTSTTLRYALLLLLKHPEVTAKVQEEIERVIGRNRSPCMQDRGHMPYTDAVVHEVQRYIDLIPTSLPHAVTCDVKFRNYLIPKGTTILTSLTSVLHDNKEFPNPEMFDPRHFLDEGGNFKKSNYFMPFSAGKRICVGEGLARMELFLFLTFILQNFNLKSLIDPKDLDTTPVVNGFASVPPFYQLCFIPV

[9] = biological target: T2, Short transient receptor potential channel 4; experiment: mouse TRPC4 channel inhibitors, dose response, cell-based, HEK293 TRPC4/mu-opioid, Fluo-4 calcium (AID 434942); assay type: functional;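 also: potency of inhibitors blocking the TRPC4 calcium response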
[10] = biological target: Delta-type opioid receptor (Homo sapiens, UniProt P41143); experiment: Counterscreen for agonists of heterodimerization of the mu 1 (OPRM1) and delta 1 (OPRD1) opioid receptors: Luminescence-based cell-based high throughput dose response assay to identify agonists of OPRD1 homodimerization. [Related pubchem assays (depositor defined):AID504326, AID504355, AID504692, AID504904, AID504905]; assay type: functional
Chain of Delta-type opioid receptor (P41143 whole entry): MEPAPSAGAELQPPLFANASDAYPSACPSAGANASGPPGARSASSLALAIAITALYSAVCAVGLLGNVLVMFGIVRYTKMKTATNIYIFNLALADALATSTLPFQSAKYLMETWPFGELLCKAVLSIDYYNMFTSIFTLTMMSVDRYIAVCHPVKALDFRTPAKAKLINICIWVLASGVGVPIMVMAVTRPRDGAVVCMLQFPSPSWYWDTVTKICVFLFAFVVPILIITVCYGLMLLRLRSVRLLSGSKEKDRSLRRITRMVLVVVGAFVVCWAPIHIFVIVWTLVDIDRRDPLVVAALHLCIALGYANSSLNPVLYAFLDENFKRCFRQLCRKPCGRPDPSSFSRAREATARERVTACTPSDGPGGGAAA

[11] = biological target: Lysine-specific demethylase 4C (Homo sapiens, UniProt Q9H3R0); experiment: GASC-1 (JMJD2C) histone demethylase inhibitors, dose response, biochemical, DELFIA europium, cherry-picked samples (AID 488835); assay type: functional
[12] = biological target: ATP-dependent molecular chaperone HSP82 (Candida albicans (strain WO-1) (Yeast), UniProt C4YTQ8); experiment: loss of DOC-induced GRE-beta-galactosidase reporter signal, dose response, Hsp90 inhibitor project, S. cerevisiae, luminescence (AID 2400); assay type: functional, cell-based;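 also: beta-galactosidase luminescence from glucocorticoid response element reporter as proxy for Hsp90 function; inhibitor potency where signal loss means Hsp90 inhibition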
Chain of ATP-dependent molecular chaperone HSP82 (C4YTQ8 whole entry): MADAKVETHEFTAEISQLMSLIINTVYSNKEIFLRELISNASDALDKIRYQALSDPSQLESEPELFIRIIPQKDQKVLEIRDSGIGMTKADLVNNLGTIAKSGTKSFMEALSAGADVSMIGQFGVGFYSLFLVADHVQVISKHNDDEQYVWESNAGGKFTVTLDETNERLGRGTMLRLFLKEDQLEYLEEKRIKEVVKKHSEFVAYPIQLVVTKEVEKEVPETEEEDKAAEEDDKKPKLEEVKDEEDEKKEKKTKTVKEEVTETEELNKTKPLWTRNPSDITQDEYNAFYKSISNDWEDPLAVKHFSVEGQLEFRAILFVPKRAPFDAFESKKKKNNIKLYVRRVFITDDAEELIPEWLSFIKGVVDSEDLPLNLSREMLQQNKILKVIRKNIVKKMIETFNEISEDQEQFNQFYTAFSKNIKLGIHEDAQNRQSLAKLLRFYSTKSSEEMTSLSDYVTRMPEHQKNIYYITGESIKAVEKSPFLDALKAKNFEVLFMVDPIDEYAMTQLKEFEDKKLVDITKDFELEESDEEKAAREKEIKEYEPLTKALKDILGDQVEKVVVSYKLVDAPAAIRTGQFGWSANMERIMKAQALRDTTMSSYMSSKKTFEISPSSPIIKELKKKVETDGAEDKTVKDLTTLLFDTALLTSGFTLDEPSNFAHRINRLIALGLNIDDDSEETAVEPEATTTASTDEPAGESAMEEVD

[13] = biological target: Serine/threonine-protein phosphatase (Candida dubliniensis (strain CD36 / CBS 7987 / NCPF 3949 / NRRLY-17841) (Yeast), UniProt B9W6M3); experiment: calcineurin pathway inhibitors in yeast reporter, dose response, S. cerevisiae, CDRE-lacZ, luminescence, secondary (AID 2388); assay type: functional, cell-based;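 also: yeast reporter cells carrying a calcineurin-responsive lacZ construct stimulated with calcium chloride; luminescent beta-galactosidase reporter signal in whole cells rather than isolated phosphatase activity; potency for inhibition where a drop in reporter signal means calcineurin blockade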
Chain of Serine/threonine-protein phosphatase (B9W6M3 whole entry): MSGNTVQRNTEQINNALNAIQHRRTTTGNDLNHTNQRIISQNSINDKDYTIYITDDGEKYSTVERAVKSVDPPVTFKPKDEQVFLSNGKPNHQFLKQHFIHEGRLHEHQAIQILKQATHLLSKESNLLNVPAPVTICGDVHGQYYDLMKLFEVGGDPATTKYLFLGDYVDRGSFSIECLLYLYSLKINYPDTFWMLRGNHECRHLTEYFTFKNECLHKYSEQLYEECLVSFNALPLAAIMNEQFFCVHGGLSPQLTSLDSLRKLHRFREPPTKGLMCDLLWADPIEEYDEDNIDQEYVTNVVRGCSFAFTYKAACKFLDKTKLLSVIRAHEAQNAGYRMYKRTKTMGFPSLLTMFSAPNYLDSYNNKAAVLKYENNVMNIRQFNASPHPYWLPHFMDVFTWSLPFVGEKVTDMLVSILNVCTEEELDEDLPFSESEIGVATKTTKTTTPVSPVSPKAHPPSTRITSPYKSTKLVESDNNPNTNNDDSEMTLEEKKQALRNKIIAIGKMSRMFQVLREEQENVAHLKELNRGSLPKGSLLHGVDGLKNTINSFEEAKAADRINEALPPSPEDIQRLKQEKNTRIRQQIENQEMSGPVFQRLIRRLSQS

[14] = Luminescence Cell-Based Dose Retest to Confirm Inhibitors of Cancer Stem Cells. [Related pubchem assays (depositor defined):AID2717, AID2721]; assay type: functional; conditions: Homo sapiens
HEK293 [15] = experiment: cells; conditions: Homo sapiens
[16] = biological target: T3, Nucleotide-binding oligomerization domain-containing protein 1 (Homo sapiens, UniProt Q9Y239); experiment: NOD1 signaling inhibitors, SAR follow-up, revised (AID 2333); assay type: functional
T3 sequence (Q9Y239 whole entry): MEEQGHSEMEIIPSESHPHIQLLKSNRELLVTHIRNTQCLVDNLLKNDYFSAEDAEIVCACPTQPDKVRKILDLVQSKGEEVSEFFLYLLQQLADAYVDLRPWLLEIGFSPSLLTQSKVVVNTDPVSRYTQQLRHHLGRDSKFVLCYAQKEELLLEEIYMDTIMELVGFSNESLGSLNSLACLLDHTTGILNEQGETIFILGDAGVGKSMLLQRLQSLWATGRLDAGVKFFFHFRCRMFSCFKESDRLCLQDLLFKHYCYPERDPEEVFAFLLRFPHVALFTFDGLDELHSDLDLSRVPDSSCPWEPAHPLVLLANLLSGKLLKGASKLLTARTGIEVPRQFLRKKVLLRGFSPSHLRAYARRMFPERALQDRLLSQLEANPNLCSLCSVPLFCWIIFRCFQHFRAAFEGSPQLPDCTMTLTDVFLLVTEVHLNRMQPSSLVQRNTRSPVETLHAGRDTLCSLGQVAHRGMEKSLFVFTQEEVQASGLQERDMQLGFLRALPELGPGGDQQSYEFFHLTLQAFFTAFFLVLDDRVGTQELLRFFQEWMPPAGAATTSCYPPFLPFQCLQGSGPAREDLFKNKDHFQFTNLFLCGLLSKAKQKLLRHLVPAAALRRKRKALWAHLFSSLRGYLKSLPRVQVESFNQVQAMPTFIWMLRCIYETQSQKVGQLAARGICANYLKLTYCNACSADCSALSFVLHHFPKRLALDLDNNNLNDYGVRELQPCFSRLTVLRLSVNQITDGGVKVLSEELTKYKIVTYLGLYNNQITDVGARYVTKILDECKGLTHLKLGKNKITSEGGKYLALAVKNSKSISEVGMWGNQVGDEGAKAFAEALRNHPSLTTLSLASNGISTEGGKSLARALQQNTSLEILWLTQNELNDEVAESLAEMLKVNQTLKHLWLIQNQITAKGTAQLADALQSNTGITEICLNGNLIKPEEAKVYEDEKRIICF

[17] = biological target: Nucleotide-binding oligomerization domain-containing protein 2 (Homo sapiens, UniProt Q9HC29); experiment: PubChem AID 2334; assay type: functional
Tumor necrosis factor = Tumor necrosis factor (Homo sapiens, UniProt P01375); experiment: TNFa-triggered NF-kB activation inhibitors, SAR follow-up, cell-based, revised (AID 2337); assay type: functional
Chain of Tumor necrosis factor (P01375 whole entry): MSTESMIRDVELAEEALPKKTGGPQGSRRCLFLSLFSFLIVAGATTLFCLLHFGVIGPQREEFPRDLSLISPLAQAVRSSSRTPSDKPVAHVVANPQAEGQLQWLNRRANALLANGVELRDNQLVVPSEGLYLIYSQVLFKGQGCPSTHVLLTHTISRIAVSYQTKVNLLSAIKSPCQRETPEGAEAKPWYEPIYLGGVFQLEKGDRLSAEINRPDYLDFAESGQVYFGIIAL

Beta-galactosidase [18] = biological target: T4, Beta-galactosidase (Escherichia coli, UniProt Q8VNN2); experiment: PubChem AID 485352; assay type: functional
T4 sequence (Q8VNN2 whole entry): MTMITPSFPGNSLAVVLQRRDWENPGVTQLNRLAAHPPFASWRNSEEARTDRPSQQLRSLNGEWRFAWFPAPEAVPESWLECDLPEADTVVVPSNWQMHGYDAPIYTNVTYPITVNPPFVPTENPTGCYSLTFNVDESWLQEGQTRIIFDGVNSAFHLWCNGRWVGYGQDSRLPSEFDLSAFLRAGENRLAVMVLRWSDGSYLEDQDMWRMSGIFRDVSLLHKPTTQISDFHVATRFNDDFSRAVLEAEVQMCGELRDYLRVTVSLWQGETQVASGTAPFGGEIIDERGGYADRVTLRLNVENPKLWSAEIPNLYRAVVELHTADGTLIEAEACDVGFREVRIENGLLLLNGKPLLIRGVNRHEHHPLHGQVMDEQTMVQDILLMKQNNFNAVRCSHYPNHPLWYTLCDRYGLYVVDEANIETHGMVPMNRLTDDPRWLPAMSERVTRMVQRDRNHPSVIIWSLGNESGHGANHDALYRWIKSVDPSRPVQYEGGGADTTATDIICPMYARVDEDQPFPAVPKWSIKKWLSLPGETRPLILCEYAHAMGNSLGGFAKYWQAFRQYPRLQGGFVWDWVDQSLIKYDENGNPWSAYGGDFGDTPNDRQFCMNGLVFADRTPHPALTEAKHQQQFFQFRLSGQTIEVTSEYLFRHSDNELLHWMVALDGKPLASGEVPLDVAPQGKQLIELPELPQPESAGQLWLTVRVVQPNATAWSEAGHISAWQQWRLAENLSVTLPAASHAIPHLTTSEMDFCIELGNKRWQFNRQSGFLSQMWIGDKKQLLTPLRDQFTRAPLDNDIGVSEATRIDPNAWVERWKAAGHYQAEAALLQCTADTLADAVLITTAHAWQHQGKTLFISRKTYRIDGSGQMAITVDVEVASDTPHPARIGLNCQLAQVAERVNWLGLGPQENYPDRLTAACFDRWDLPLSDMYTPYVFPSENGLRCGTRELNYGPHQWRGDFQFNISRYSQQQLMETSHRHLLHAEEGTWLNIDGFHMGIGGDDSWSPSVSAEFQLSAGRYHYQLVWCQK

INS1 = experiment: beta cell apoptosis inhibitors, cytokine rescue, dose response, luminescence, retest (AID 449756); assay type: functional, cell-based; conditions: Rattus norvegicus;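 also: cell death triggered by IL-1 beta plus TNF-alpha plus IFN-gamma mixture; protective hits raise ATP signal compared with cytokine alone wells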
[19] = inhibitors of firefly luciferase expression or activity, dose response, H4 neuroglioma cells, luminescence (AID 1990); assay type: functional, cell-based
[20] = inhibitors of SNCA 5'UTR-driven reporter translation, confirmation, H4 neuroglioma cells, luminescence (AID 1988); assay type: functional, cell-based
[21] = Luminescence Cell-Based Dose Response HTS to Identify Inhibitors of 5'UTR Stem-Loop Driven Prion Protein mRNA Translation in H4 Neuroglioblastoma Cells. [Related pubchem assays: 1827 (Project Summary), 1813 (Primary HTS)]; assay type: functional
[22] = biological target: T5, Type-1 angiotensin II receptor (Homo sapiens, UniProt P30556); experiment: AT1 receptor antagonists, dose response, selectivity assay for APJ receptor antagonist project, cell-based, uHTS hits (AID 463214); assay type: functional;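 also: antagonist potency against angiotensin II stimulated AT1 response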
T5 sequence (P30556 whole entry): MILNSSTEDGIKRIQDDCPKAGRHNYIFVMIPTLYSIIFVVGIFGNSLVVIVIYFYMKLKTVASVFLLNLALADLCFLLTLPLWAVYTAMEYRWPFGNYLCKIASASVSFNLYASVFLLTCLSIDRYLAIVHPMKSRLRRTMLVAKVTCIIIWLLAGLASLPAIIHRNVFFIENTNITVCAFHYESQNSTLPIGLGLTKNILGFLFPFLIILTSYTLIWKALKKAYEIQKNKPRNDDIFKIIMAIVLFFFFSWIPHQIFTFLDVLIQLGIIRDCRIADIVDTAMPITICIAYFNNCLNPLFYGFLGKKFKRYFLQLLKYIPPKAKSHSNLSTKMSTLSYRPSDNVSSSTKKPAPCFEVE

Nonstructural protein 1 = Nonstructural protein 1 (Influenza A virus, UniProt Q194T2); assay type: functional, Influenza A virus (A/California/07/2009(H1N1))
Chain of Nonstructural protein 1 (Q194T2 whole entry): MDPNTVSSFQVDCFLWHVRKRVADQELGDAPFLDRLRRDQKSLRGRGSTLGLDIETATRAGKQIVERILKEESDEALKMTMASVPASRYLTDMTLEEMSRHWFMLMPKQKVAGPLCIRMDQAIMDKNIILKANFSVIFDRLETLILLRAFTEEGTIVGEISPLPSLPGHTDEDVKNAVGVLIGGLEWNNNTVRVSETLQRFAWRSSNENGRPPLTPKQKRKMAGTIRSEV

HEK293 [23] = experiment: inhibitors of LMP1-driven NF-kB reporter, dose response, cell-based, HEK293, luciferase, cherry-pick (AID 588343); assay type: functional; conditions: Homo sapiens
Beta-galactosidase [24] = biological target: T4, Beta-galactosidase; experiment: Dose response counterscreen for EBI2 assay utilizing the enzyme, b-galactosidase.; assay type: functional

Structure (SMILES): O=C(CSc1ccccn1)Nc1nonc1[N+](=O)[O-]
- AC50 [1]: 5 µM (active)
- CC50 (Vero [2]): 20.7 µM (active)
- IC50 (Vero [3]): > 25 µM (active)
- EC50 (Streptococcus): > 150 µM (not active)
- AC50 [4]: 12.5 µM (active)
- CC50 [5]: 24.5 µM (active)
- EC50 [6]: 5.77 µM (active)
- EC50 (Streptokinase A): > 150 µM (not active)

Structure (SMILES): CN1C2C=C(N(CCc3c[nH]c4ccccc34)C(=O)c3ccc(Cl)cc3)CC1CC2 (configuration not stated)
- EC50 [7]: > 92.5 µM (inactive)
- EC50 (Mu-type opioid receptor): 47.9 µM (inactive)
- AC50 (Cytochrome P450 3A4): 17.8 µM (inconclusive)
- EC50 [8]: 0.596 µM (active)
- AC50 (Cytochrome P450 2C19): 5.01 µM (inconclusive)
- EC50 [9]: 0.211 µM (active)
- EC50 [10]: > 92.5 µM (inactive)

Structure (SMILES): COc1cc2c(cc1OC)C(COc1ccc(F)cc1)NCC2 (configuration not stated)
- AC50 [11]: 25.2 µM (active)

Structure (SMILES): CCn1c(Sc2nc(C)nc3scc(-c4cccs4)c23)n[nH]c1=O
- EC50 [12]: 30.7 µM (active)
- EC50 [13]: > 180 µM (inactive)

Structure (SMILES): CSCCCNC(=O)c1ccc(OC2CCN(CCc3ccccc3)CC2)cc1
- EC50 [7]: > 92.5 µM (inactive)
- EC50 (Mu-type opioid receptor): > 92.5 µM (inactive)
- EC50 [10]: > 92.5 µM (inactive)

Structure (SMILES): COC(=O)c1c(NC(=O)c2ccccc2)sc2c1CC(C)(C)OC2
- AC50 [14]: 9.23 µM (active)
- IC50 (HEK293 [15]): > 20 µM (inactive)
- IC50 [16]: > 20 µM (inactive)
- IC50 [17]: > 20 µM (inactive)
- IC50 (Tumor necrosis factor): > 20 µM (inactive)

Structure (SMILES): C/C(=N/NC(=O)c1ccc(C(C)(C)C)cc1)c1ccccn1
- EC50 (Beta-galactosidase [18]): > 40 µM (inactive)
- AC50 (INS1): 0.497 µM (active)
- CC50 (Vero [2]): 2.62 µM (active)
- EC50 [19]: 3.75 µM (active)
- IC50 (Vero [3]): > 25 µM (active)
- EC50 [20]: 0.455 µM (active)
- EC50 [21]: 0.585 µM (active)
- IC50 [22]: 3.48 µM (active)
- IC50 (Nonstructural protein 1): 6.97 µM (active)
- AC50 (HEK293 [23]): 1.31 µM (active)
- IC50 (Beta-galactosidase [24]): > 80 µM (inactive)
